For orientation: IC50 means the concentration needed to halve the response being measured. A high value points to lower potency.

One assay relates to BMDM (CSF-1). As to the kind of experiment: Macrophage survival (CCK-8). The settings on record: 7 days, mean ± SD. The assay is classed as cell-based, murine. The procedure:
(§1) Murine bone marrow and human monocytes were stimulated with CSF-1 for 7 days together with the indicated inhibitor, and cell viability was evaluated by the CCK-8 assay. The IC50 values are shown as the mean ± SD (nM) from two independent tests. B-E, To test the impact of 3D185 on the polarization of CSF-1-induced macrophages, murine bone marrow cells and human monocytes were induced to mature into macrophages with CSF-1 for 7 days and then stimulated with CSF-1, IL-4 and IL-13 for an additional 48 h. The expression of the markers MHC-II (b), CD86 (c), and CD206 (d) on induced murine macrophages and CD206 expression on induced human macrophages (e) were determined by flow cytometry, and the mean fluorescence intensity (MFI) was analyzed with FlowJo. Representative data from two independent experiments. f Murine bone marrow cells (left panel) and human monocytes (right panel) were induced to mature into macrophages with CSF-1 for 7 days and then stimulated with CSF-1, IL-4 and IL-13 and treated with vehicle or the indicated inhibitor for an additional 48 h. Then, all cells were collected to count viable cells by staining with trypan blue
(§2) Murine bone marrow-derived macrophages (BMDMs) and PBMCs were used for cell viability studies. BMDMs were harvested by flushing the tibias and femurs of 6- to 8-week-old C57BL/6 mice and depleting red blood cells (RBCs) by RBC lysis (Biogems). For BMDM survival, the cells were cultured for 7 days in RPMI 1640 containing 10% fetal bovine serum (FBS), 100 U/mL penicillin, 100 μg/mL streptomycin and 100 ng/mL mouse CSF-1 (or CSF-2) with or without the tested compounds. PBMCs were obtained from HemaCare and cultured for 7 days in RPMI 1640 containing 10% fetal bovine serum (FBS), 100 U/mL penicillin, 100 μg/mL streptomycin and 100 ng/mL human CSF-1 (or CSF-2) with or without the tested compounds. Cell viability was measured using the CCK-8 assay. For IL-4/IL-13-induced macrophage survival analysis, viable cells were counted by trypan blue exclusion.

The next assay concerns BMDM (CSF-2). Description: Macrophage survival (CCK-8). The assay is classed as cell-based, murine. The settings on record: 7 days. The protocol: as §2
The subject of another assay is PBMC (CSF-1). As to the kind of experiment: Macrophage survival (CCK-8). The assay is classed as cell-based. To be noted: Homo sapiens, 168 h, 7 days, mean ± SD. The procedure: as §1
Murine bone marrow-derived macrophages (BMDMs) and PBMCs were used for cell viability studies. […] Cell viability was measured using the CCK-8 assay. For IL-4/IL-13-induced macrophage survival analysis, viable cells were counted by trypan blue exclusion.

In another assay the test system is PBMC (CSF-2). As to the kind of experiment: Macrophage survival (CCK-8). It is filed as cell-based. The settings on record: Homo sapiens, 168 h, 7 days. The procedure: as §2
Assay [1] relates to CSF-1-differentiated macrophages induced RT112 cell migration. Description: Tumor cell migration assay (Transwell co-culture). The assay is classed as cell-based, human. The settings on record: 25 nM, 24 h.
Assay [2] has as its system MC38 colorectal adenocarcinoma model. Description: In vivo antitumor activity, MC38 model. Also on record: species or system C57BL/6 mice. The settings on record: oral once daily 23 days. The procedure: For the MC38 xenograft model, 6-week-old C57BL/6 mice were housed and maintained under specific pathogen-free conditions. Tumor cells (2 × 10^6 in 200 μL) were injected subcutaneously (s.c.) into the right flanks of C57BL/6 mice. […] The tumors were measured twice per week using a microcaliper. Tumor volume (TV) was calculated as follows: TV = (length × width^2)/2. In addition, the individual relative tumor volume (RTV) was calculated as follows: RTV = Vt / V0, where Vt is the volume on a particular day and V0 is the volume at the beginning of the treatment. The RTV is shown on the indicated days as the […] ± SEM for the indicated groups of mice.

For a further assay, the system named is HUH7. Description: Cell proliferation assay. The settings on record: 72 h, mean ± SD. It is filed as cell-based, human. The procedure: (§3) The cancer cell lines indicated in Figure 3 were seeded in 96-well plates at a low density in growth medium. The next day, appropriate controls or the designated concentrations of the compounds were added to each well, and the cells were incubated for 72 h. HUVECs (passage 3) were seeded in 96-well plates in growth medium overnight and transferred to serum-free medium for 24 h. The following day, appropriate controls or the designated concentrations of the compounds were added to each well, and 100 ng/mL growth factor (bFGF or VEGF) was added to the indicated wells. The cells were incubated for 48 h. Finally, cell proliferation was determined using a sulforhodamine B (SRB) assay or a cell counting kit-8 (CCK-8) assay. […] IC50 values for proliferation curves were calculated using a 4-parameter logistic nonlinear regression model with SoftMax Pro Software (Molecular Devices, San Jose, USA).

The subject of the next assay is KATOIII. Description: Cell proliferation assay. The settings on record: 72 h, mean ± SD. The assay is classed as cell-based, human. The procedure: as §3
The subject of another assay is KG-1. Description: Cell proliferation assay. The assay is classed as cell-based, human. The settings on record: 72 h, mean ± SD. The procedure: as §3
The next assay deals with NCI-H1581. Description: Cell proliferation assay. The assay is classed as cell-based, human. To be noted: 72 h, mean ± SD. The protocol: as §3
A further assay concerns NCI-H716. Description: Cell proliferation assay. The assay is classed as cell-based, human. To be noted: 72 h, mean ± SD. The protocol: as §3
For another assay, the system named is OPM2. As to the kind of experiment: Cell proliferation assay. The settings on record: 72 h, mean ± SD. It is filed as cell-based, human. The procedure:
as §3

For a further assay, the system named is RT112. Description: Cell proliferation assay. The assay is classed as cell-based, human. To be noted: 72 h, mean ± SD. The procedure:
as §3

A further assay has as its system SNU16. As to the kind of experiment: Cell proliferation assay. To be noted: 72 h, mean ± SD. It is filed as cell-based, human. The protocol: as §3
For the next assay, the system named is SUM52PE. Description: Cell proliferation assay. It is filed as cell-based, human. To be noted: 72 h, mean ± SD. The procedure: as §3
Another assay deals with UMUC14. As to the kind of experiment: Cell proliferation assay. The assay is classed as cell-based, human. To be noted: 72 h, mean ± SD. The procedure:
as §3

Another assay has as its system M-NFS-60. As to the kind of experiment: Cell proliferation assay. To be noted: 72 h, mean ± SD. The assay is classed as cell-based, mouse. The protocol:
as §3

Consider `FC(F)(F)c1ccc(CNc2ccc(Cc3c[nH]c4ncc(Cl)cc34)cn2)cn1` [PLX3397, reference compound], for which the IC50 in the assay on BMDM (CSF-1) (Mus musculus, BMDM, 168 h) was 195 ± 48.2 nM; with BMDM (CSF-2) (Mus musculus, BMDM, 168 h), over 1000 nM; in the assay on PBMC (CSF-1) it was 220 ± 38.6 nM; with PBMC (CSF-2), over 1000 nM. Moreover, the “effect on macrophage-induced RT112 cell migration” value in assay [1] is listed as “no inhibitory effect”. Moreover, the “effect on MC38 tumor growth” value in [2] is reported as “delayed tumor growth”.
For the compound AZD4547 [reference compound], the IC50 in the assay on HUH7 turned out to be 284 ± 22.5 nM; in the assay on KATOIII, 15.1 ± 2.9 nM; in the assay with KG-1 it was 3 ± 0.3 nM; in the assay on NCI-H1581, 43.8 ± 8.6 nM; in the assay on NCI-H716, 7 ± 0.9 nM; in the assay with OPM2 it was 33 ± 7.6 nM. Besides, the IC50 in the assay with RT112 is 83.3 ± 6.4 nM; in the assay with SNU16, 2.7 ± 0.4 nM; with SUM52PE, 15.5 ± 2.4 nM; in the assay with UMUC14 it was 52.9 ± 4.6 nM; with M-NFS-60, 1230 ± 184 nM; with BMDM (CSF-1) it was 883 ± 133 nM. Besides, the IC50 in the assay on BMDM (CSF-2) is over 1000 nM.

Values taken from paper PMC6704710, “Preclinical evaluation of 3D185, a novel potent inhibitor of FGFR1/2/3 and CSF-1R, in FGFR-dependent and macrophage-dominant cancer models” (Journal of Experimental & Clinical Cancer Research : CR, 2019).
